Measured values from US11639493B2, “Consortium of bacteria that mineralises lipids, starches and sugars (carbohydrates) and are resistant to lethal doses of thiodicarb (carbamate) and bifenthrin (pyrethroid) for inoculation into organic matter of different origins” (priority 2018, dated 2023).

What was measured:
Type in all cases: cell-based
Bacillus brevis = assay: Adaptation stages: mortality of Bacillus brevis on growth media with thiodicarb or bifenthrin
Description: (§1) Bacteria strains, nitrifiers, phosphorus solubilizers and antagonists for pathogens: • a) Arthrobacter globiformis • b) Bacillus megaterium • c) Bacillus brevis • d) Bacillus thuringiensis Preparation for Stage Development • 1. Glass material is sterilized in an autoclave. • 2. The required amount of growth media is prepared, DFA Agar, Malt Agar (Corn Agar) and (PDA) to obtain viable colonies. • 3. Lethal dose (LD) applied to a hectare is established, for thiodicarb as well as bifenthrin. 10 Petri dishes are prepared with 0.1 LD of thiodicarb of bifenthrin. Dishes are incubated at 25° C. for 72 hours with cold light. Methodology • a. Physical and chemical variables obtained in the research are maintained using traces. Petri dishes are placed inside the laminar flow chamber along with the diluted samples, to seed microorganisms in the dishes, a one ml sample of the strain is taken with an automated pipette, 10^−1 and 10^−2 solutions are performed and each solution is homogenized. • b. Having the petri dishes with the sterile and cold growth media, it is homogenized with 6 right to left movements, 6 clockwise movements, 6 counterclockwise movements and 6 front to back movements over a flat horizontal surface until the inoculum is completely integrated into the media, stand until it solidifies and each dish is covered with parafilm to avoid contamination during incubation. • c. The adapted consortium conditions are kept for the starting media (habitat), humidity, pH, temperature, chemical traceability, lighting and airing, Gram colorations and malachite green for the differentiation and observation of cellular structures. • d. Dishes with thiodicarb and Bifenthrin are placed inside the incubator at 25° C. for 72 hours with a cold light lamp. • e. Inoculated dishes are incubated for 72 hours and the bacteria growth will be recorded, the product concentration impact is determined over the plate growth (12 hours of incubation). • f. The residual impact of the product is reviewed after 7 days in the malt agar and PDA agar media. • g. If there is no growth over 10%, the process is repeated until a mortality under 90% is obtained. • h. The colony diameter is determined using a graduated ruler, data is recorded subtracting the diameter of the seeded dish, from which the effect over the mycelial growth will be determined compared to the control (not poisoned MA, denominated as percentage of inhibition of radial growth (PIRG %). • i. Progress is recorded daily and after 7 days analysis of an acceptable coverage is performed, if not, the procedure is repeated as many times as required. • j. From the 10 Petri dishes for each microorganism, the one with the lowest mortality is the one that will continue with the following study. • k. The study is performed again using this percentage until coverage increases and so on, the addition of thiodicarb and bifenthrin is alternated with the LD in intervals of 0.1 LD; all these experiments have been designed with the experimental strains and a control. • l. With the data obtained from the bacterial growth, the percentage of inhibition of gradual growth is obtained, the data is transformed for its analysis with the expression 2 arc sin. A two-way classification analysis of variance is applied and later the Turkey test is performed using a 5% probability.
(§2) Characteristics for this procedure were recorded during all stages through the following indicators: • a. Growth speed • b. Percentage of inhibition measured in Number of CFU/mm • c. Percentage of poison resistance
Beginning with habitat conditions obtained in the adaptation to organophosphate, organochlorine compounds and mercury from the microorganisms at the E-38 pH: 7.2, Humidity: 36%, thermoresistant and facultative anaerobic. These conditions are the starting point to adapt the strain to thiodicarb and bifenthrin.
To adapt this microorganism, 51 stages were performed, beginning the process with the conventional growth media. […]

Arthrobacter globiformis = assay: Adaptation stages: mortality of Arthrobacter globiformis on growth media with thiodicarb or bifenthrin
Description: as §1, §2
Habitat conditions are maintained, conditions obtained during the adaptation to organophosphorus and organochlorinated compounds and mercury of the microorganism, pH: 7.0, humidity: 35%, Temperature: Thermoresistant. These conditions are the starting point to adapt the strain to the new pollutants: thiodicarb (carbamate) and bifenthrin (pyrethroid). […]

Bacillus thuringiensis = assay: Adaptation stages: mortality of Bacillus thuringiensis on growth media with thiodicarb or bifenthrin
Description: as §1, §2
Beginning with habitat conditions obtained in the adaptation to organophosphate, organochlorine compounds and mercury from the microorganisms at the E-38 pH: 7.2, Humidity: 52%, thermoresistant (74° C.), […] and facultative anaerobic. These conditions are the starting point to adapt the strain to thiodicarb and bifenthrin. During all stages a cold light lamp will be used to adapt the microorganism to sunlight. […]

Bacillus subtillis = assay: Adaptation stages: mortality of Bacillus subtillis on growth media with thiodicarb or bifenthrin
[1] = stage E-1, 0.1 LD (0.0000175 gr), until day 68 of incubation
[2] = stage E-2, 0.1 LD (0.0000175 gr)
[3] = stages E-3 and E-4, 0.2 LD (0.000035 gr)
[4] = stages E-9 and E-10, 0.3 LD (0.000053 gr)
[5] = stages E-11 and E-12, 0.4 LD (0.000070 gr)
[6] = stages E-15 and E-16, 0.4 LD (0.00000024 gr)
[7] = stages E-17 and E-18, 0.5 LD (0.000087 gr)
[8] = stages E-19 and E-20, 0.6 LD (0.00011 gr)
[9] = stages E-23 and E-24, 0.6 LD (0.00000036 gr)
[10] = stages E-25 and E-26, 0.7 LD (0.00012 gr)
[11] = stages E-27 and E-28, 0.8 LD (0.00014 gr)
[12] = stages E-31 and E-32, 0.8 LD (0.00000042 gr)
[13] = stages E-33 and E-34, 0.9 LD (0.00016 gr)
[14] = stages E-35 and E-36, 1 LD (0.00018 gr)
[15] = stages E-39 and E-40, 1 LD (0.00000048 gr)
[16] = stages E-41 and E-42, 1.1 LD (0.00020 gr)
[17] = stages E-43 and E-44, 1.2 LD (0.00022 gr), both stages
[18] = stages E-47 and E-48, 1.2 LD (0.00000060 gr)

CS/C(C)=N\OC(=O)N(C)SN(C)C(=O)O/N=C(\C)SC [thiodicarb] was tested, and the “Resistant to: FINAL” value (Bacillus brevis; Bacillus brevis at the end of the adaptation process) was 1.3 LD of, the mortality (Bacillus brevis; [1]) was 82% and the mortality (Bacillus brevis; [2]) was 78%. The mortality (Bacillus brevis; [3]) was 72%, the mortality (Bacillus brevis; [4]) was 68% and the mortality (Bacillus brevis; [5]) was 67%. For the same compound, the mortality (Bacillus brevis; [6]) was 60%, the mortality (Bacillus brevis; [7]) was 59 to 54% and the mortality (Bacillus brevis; [8]) was 55%. For the same compound, the mortality (Bacillus brevis; [9]) was 51%, the mortality (Bacillus brevis; [10]) was 50% and the mortality (Bacillus brevis; [11]) was 46%. The mortality (Bacillus brevis; [12]) was 42%, the mortality (Bacillus brevis; [13]) was 38% and the mortality (Bacillus brevis; [14]) was 28%. For the same compound, the mortality (Bacillus brevis; [15]) was 20%, the mortality (Bacillus brevis; [16]) was 28% and the mortality (Bacillus brevis; [17]) was 22%. It also gave a mortality (Bacillus brevis; [18]) of 12%, a mortality (Bacillus brevis; stages E-49 and E-50, 1.3 LD (0.00024 gr)) of 10% and a mortality (Arthrobacter globiformis; stages E-1 and E-2, 0.1 LD (0.0000175 gr) in growth media, until incubation day 45) of 86%. It also gave a mortality (Arthrobacter globiformis; [3]) of 66 to 80%, a mortality (Arthrobacter globiformis; [4]) of 74% and a mortality (Arthrobacter globiformis; [5]) of 71%. For the same compound, the mortality (Arthrobacter globiformis; [6]) was 62%, the mortality (Arthrobacter globiformis; [7]) was 63% and the mortality (Arthrobacter globiformis; [8]) was 58%. It also gave a mortality (Arthrobacter globiformis; [9]) of 48%, a mortality (Arthrobacter globiformis; [10]) of 48% and a mortality (Arthrobacter globiformis; [11]) of 40%. It also gave a mortality (Arthrobacter globiformis; [12]) of 36%, a mortality (Arthrobacter globiformis; [13]) of 32% and a mortality (Arthrobacter globiformis; [14]) of 25%. For the same compound, the mortality (Arthrobacter globiformis; [15]) was 18%, the initial mortality (Arthrobacter globiformis; summary of the adaptation tests with increasing concentrations of thiodicarb and bifenthrin) was about 82% and the “Resistant to: FINAL” value (Bacillus thuringiensis; B. Thuringiensis at the end of the adaptation process) was 1.2 LD of. For the same compound, the mortality (Bacillus thuringiensis; stages E-1 and E-2, 0.1 LD (0.0000175 gr), until day 45 of incubation) was 72 to 70%, the mortality (Bacillus thuringiensis; [3]) was 70 to 68% and the mortality (Bacillus thuringiensis; [4]) was 65 to 61%. The mortality (Bacillus thuringiensis; [5]) was 57 to 55%, the mortality (Bacillus thuringiensis; [6]) was 52 to 50% and the mortality (Bacillus thuringiensis; [7]) was 52 to 50%. It also gave a mortality (Bacillus thuringiensis; [8]) of 50 to 45%, a mortality (Bacillus thuringiensis; [9]) of 44 to 42% and a mortality (Bacillus thuringiensis; [10]) of 44 to 40%. For the same compound, the mortality (Bacillus thuringiensis; [11]) was 36 to 35%, the mortality (Bacillus thuringiensis; [12]) was 30 to 28% and the mortality (Bacillus thuringiensis; [13]) was 30%. For the same compound, the mortality (Bacillus thuringiensis; [14]) was 25%, the mortality (Bacillus thuringiensis; [15]) was 18 to 17% and the mortality (Bacillus thuringiensis; [16]) was 18 to 17%. The mortality (Bacillus thuringiensis; [17]) was 14%, the mortality (Bacillus thuringiensis; [18]) was 10 to 7% and the “Resistant to: FINAL” value (Bacillus subtillis; Bacillus subtillis at the end of the adaptation process) was 1 LD of. The mortality (Bacillus subtillis; [1]) was 82%, the mortality (Bacillus subtillis; [2]) was 80% and the mortality (Bacillus subtillis; [3]) was 75 to 72%. For the same compound, the mortality (Bacillus subtillis; [4]) was 66 to 63%, the mortality (Bacillus subtillis; [5]) was 64 to 62% and the mortality (Bacillus subtillis; [6]) was 64 to 60%. It also gave a mortality (Bacillus subtillis; [7]) of 59 to 54%, a mortality (Bacillus subtillis; [8]) of 52 to 50% and a mortality (Bacillus subtillis; [9]) of 40 to 35%. It also gave a mortality (Bacillus subtillis; [10]) of 35 to 30%, a mortality (Bacillus subtillis; [11]) of 28 to 25% and a mortality (Bacillus subtillis; [12]) of 20 to 18%. It also gave a mortality (Bacillus subtillis; [13]) of 18 to 15%, a mortality (Bacillus subtillis; [14]) of 12 to 9% and a mortality (Bacillus subtillis; [15]) of 5%.
